# Data from PMC8068288, “Novel Thiol Containing Hybrid Antioxidant-Nitric Oxide Donor Small Molecules for Treatment of Glaucoma” (Antioxidants, 2021).
# How the values were obtained:
# [1] = Superoxide anion radical scavenging assay (pyrogallol/WST-1) in buffer; assay type: biochemical
# Procedure: The ROS scavenging ratio was determined using a chemical assay where WST-1 was used as superoxide scavenger produced by pyrogallol following a reported protocol. Briefly, the superoxide anion radical scavenging activity was determined spectrophotometrically by measuring the formation of WST-1 formazan at 450 nm. WST-1 (40 µL, 50 µM) was added to the compounds (or corresponding solution) in a final volume of 160 µL in 50 mM ammonium hydrogen carbonate buffer, 0.5 mM EDTA, pH 9.3. Reaction was launched by adding 40 µL 1 mM pyrogallol. The operation was based on the 96-well microplate, and measurement was performed at different time points under 37 °C by Cytation5 Microplate Reader. Baicalein (1 mM) was used as positive control. Compounds SA-2, SA-9, and SA-10 were used in concentrations ranging from 1 µM, 10 µM, 100 µM, and 1000 µM. The superoxide anion radical scavenging ratio % was calculated according to the following formula:Scavenging ratio (%) = A0 − (A1 − A2)/A0 × 100%
# NTM-5 cells = assay: In vitro peroxynitrite measurement assay; assay type: cell-based, human; settings: 0.1 µM and 1 mM, with or without TBHP 350 µM
# Procedure: Human transformed trabecular meshwork (NTM-5) cells (20,000 cells/well/90 µL) were seeded in 96-well plates (Griener bio-one black plate) and stained with 10 µL of 10X Peroxynitrite Sensor Green solution for 1 h. […] SIN-1 was used as a positive control. Detection of peroxynitrite was done using Peroxynitrite Assay Kit (abcam-ab233468-cell based). Fluorescence signals were measured using a microplate reader (Cytation5) at Ex/Em = 485/530 nm at time intervals (15 min, 30 min, 1 h, 2 h, and 3 h). The experiments were done in duplicates.
structure (smiles),measurement,setting,value
"Cl.[NH-]c1c[n+](C2CCSCC2)no1 [SA-9, (3-(tetrahydro-2H-thiopyran-4-yl)-1,2,3-oxadiazol-3-ium-5-yl)amide hydrochloride]",AUC0–2.5 h of % superoxide scavenging response,"[1]; 1 mM compound, pyrogallol 1 mM, buffer",1355 ± 42.62
same,earliest time of superoxide (O2−) radical scavenging,[1]; buffer solution and TM cells,7 min
same,superoxide radicals scavenged,"[1]; buffer, dose response 1-1000 µM",16–40%
same,AUC0-15 of % superoxide scavenging response,"[1]; different concentrations 1-1000 µM, 15 minutes time point, buffer",5972± 834.9
same,ONOO− radical formation,NTM-5 cells,significantly less amount of radicals
